The values that follow come from patent US20240150377A1, “MODULATORS OF CYSTIC FIBROSIS TRANSMEMBRANE CONDUCTANCE REGULATOR” (VERTEX PHARMACEUTICALS INCORPORATED, priority 2020, published 2024).

Structures are written as SMILES. Read-outs that look alike come from different tables or passages of the source.

This assay concerns the target T1, CFTR (Homo sapiens, UniProt P13569, DEL508-508).
T1 construct: endogenous in cells; host or cells: primary human bronchial epithelial cells from CF subjects (F508del/MF-HBE), differentiated at air-liquid interface
The experiment in a line: HBE assay: Ussing chamber assay of CFTR-mediated short-circuit currents. The assay is classed as cell-based. The method in brief:
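CFTR-mediated Isc (μA/cm²) equals the peak response to apical 20 μM forskolin minus the residual after a 20 μM each BPO/GlyH-101/CFTR inhibitor 172 cocktail, recorded in Ussing chambers at Vhold 0 mV, 37 °C, pH 7.4, with 30 μM apical amiloride. Cells were F508del/MF HBE cultures preincubated 18-24 h with corrector (concentration range or 10 μM) plus 1 μM ivacaftor in 20% human serum.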

Setting [1] is: Table 12, at 10 μM, read-out: HBE Activity at 10 μM (%).
Setting [2] is: Table 13, at 10 μM, read-out: HBE Activity at 10 μM (%).
Where [3] appears, read: Table 10, read-out: HBE Max activity (%).
Where [4] appears, read: Table 11, read-out: HBE Max Activity (%).
[5] abbreviates: Table 12, read-out: HBE Max Activity (%).
Setting [6] is: Table 13, read-out: HBE Max Activity (%).
Where [7] appears, read: HBE assay, read-out: HBE Max activity (%).
Setting [8] is: HBE assay, 10 μM, read-out: HBE Activity at 10 μM (%).

T1 sequence (P13569 with tags, fused parts or gaps DEL508-508): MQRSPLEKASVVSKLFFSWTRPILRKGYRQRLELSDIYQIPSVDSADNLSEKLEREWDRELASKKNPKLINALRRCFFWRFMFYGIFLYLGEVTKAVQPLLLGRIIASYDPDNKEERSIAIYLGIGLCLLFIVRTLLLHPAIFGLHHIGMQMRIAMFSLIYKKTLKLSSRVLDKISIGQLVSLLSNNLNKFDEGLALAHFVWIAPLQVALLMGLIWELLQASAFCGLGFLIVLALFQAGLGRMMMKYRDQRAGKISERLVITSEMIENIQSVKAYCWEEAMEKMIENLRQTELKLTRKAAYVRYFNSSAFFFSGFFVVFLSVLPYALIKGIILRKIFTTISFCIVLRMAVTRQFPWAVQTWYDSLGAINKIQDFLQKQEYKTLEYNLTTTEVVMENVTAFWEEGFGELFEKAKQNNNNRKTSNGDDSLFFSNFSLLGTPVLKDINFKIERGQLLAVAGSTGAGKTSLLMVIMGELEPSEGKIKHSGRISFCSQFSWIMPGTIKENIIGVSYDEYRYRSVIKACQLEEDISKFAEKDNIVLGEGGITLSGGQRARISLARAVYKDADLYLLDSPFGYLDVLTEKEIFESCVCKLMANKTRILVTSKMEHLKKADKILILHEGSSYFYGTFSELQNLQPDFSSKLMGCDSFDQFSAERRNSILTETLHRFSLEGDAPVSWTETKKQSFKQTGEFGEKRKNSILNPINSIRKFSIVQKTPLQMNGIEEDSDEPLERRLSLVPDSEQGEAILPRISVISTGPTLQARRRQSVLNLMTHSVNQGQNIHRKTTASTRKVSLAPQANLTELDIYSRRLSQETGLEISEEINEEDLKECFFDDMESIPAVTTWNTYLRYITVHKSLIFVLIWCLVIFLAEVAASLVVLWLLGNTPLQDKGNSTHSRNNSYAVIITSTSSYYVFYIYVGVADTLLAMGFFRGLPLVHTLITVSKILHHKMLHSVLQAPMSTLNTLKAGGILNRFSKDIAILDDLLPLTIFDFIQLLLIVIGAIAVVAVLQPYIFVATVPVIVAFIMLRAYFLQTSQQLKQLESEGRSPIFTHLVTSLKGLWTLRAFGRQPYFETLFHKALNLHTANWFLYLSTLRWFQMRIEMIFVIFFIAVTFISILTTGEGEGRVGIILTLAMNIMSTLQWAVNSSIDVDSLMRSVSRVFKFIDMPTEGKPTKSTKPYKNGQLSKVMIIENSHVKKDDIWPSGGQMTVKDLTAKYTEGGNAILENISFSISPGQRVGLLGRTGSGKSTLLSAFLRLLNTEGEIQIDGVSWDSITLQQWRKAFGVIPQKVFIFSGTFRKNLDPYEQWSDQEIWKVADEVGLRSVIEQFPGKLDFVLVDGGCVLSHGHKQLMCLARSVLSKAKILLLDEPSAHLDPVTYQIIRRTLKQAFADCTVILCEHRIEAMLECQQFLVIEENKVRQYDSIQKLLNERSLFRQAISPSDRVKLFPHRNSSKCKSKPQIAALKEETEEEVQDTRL

For the compound `Cc1cccnc1CNC(=O)CN1C(=O)c2cccc(c2)S(=O)(=O)Nc2nc(cc(-c3c(C)cccc3C)n2)OC[C@H]1CC(C)(C)C` [Compound 215], the activation at 10 µM under setting [1] was greater than 600%.

In the case of `Cc1cccc(C)c1-c1cc2nc(n1)NS(=O)(=O)c1cccc(c1)C(=O)N(Cc1nccc(N(C)C(C3CC3)C3CC3)n1)[C@H](CC(C)(C)C)CO2` [Compound 434], the activation at 10 µM under setting [2] is greater than 600%.

As to `CNC(=O)COc1ccccc1CN1C(=O)c2cccc(c2)S(=O)(=O)Nc2nc(cc(-c3c(C)cccc3C)n2)OC[C@H]1CC(C)(C)C` [Compound 775], the activation at 10 µM (Table 10, at 10 μM, read-out: HBE activity at 10 (μM) (%)) is greater than 60%.

A word on the EC50: it is the concentration that produces a half-maximal response. As for `Cc1cccc(C)c1-c1cc2nc(n1)NS(=O)(=O)c1cccc(c1)C(=O)N(Cc1ncccc1N1CCCCC1)[C@H](CC(C)(C)C)CO2` [Compound 377], the EC50 (Table 10, read-out: HBE EC50) was less than 1 µM. Also, under setting [3], the Emax is greater than 60%.

For `Cc1cccc(C)c1-c1cc2nc(n1)NS(=O)(=O)c1cccc(c1)C(=O)N(Cc1ncc(N(C)C(C)C)cn1)[C@H](CC(C)(C)C)CO2` [Compound 633], where the note is “Table 11, read-out: HBE EC50”, the EC50 lay in the range of 1 to 3 µM. In addition, under setting [4], the Emax is greater than 60%.

With `Cc1cccc(C)c1-c1cc2nc(n1)NS(=O)(=O)c1cccc(c1)C(=O)N(Cc1cccc(C3=CCCC3)n1)[C@H](CC(C)(C)C)CO2` [Compound 621], the concentration giving a half-maximal response (EC50) (Table 11, read-out: HBE EC50) is less than 1 µM. For the same compound, the Emax under setting [4] is greater than 60%.

`Cc1cccc(C)c1-c1cc2nc(n1)NS(=O)(=O)c1cccc(c1)C(=O)N(Cc1cccc(N3CC(C)(C)C3)n1)[C@H](CC(C)(C)C)CO2` [Compound 632]: the EC50 (Table 11, read-out: HBE EC50) was less than 1 µM. For the same compound, the Emax under setting [4] is greater than 60%.

Consider `Cc1cccc(C)c1-c1cc2nc(n1)NS(=O)(=O)c1cccc(c1)C(=O)N(Cc1nccc(N3CCCC3(C)C)n1)[C@H](CC(C)(C)C)CO2` [Compound 587], for which the EC50 (Table 12, read-out: HBE EC50) is less than 1 µM. Besides, under setting [5], the Emax is greater than 60%.

Take `Cc1cccc(C)c1-c1cc2nc(n1)NS(=O)(=O)c1cccc(c1)C(=O)N(Cc1cncc(N(C)C(C(=O)O)C(C)C)n1)[C@H](CC(C)(C)C)CO2` (some centres unmarked) [Compound 243]: under setting [1], the activation at 10 µM was greater than 600%.

In the case of `Cc1cccc(C)c1-c1cc2nc(n1)NS(=O)(=O)c1cccc(c1)C(=O)N(Cc1ncc(N(C)C)cn1)[C@H](CC(C)(C)C)CO2` [Compound 1072], the Emax under setting [3] is greater than 60%.

On to `Cc1cccc(C)c1-c1cc2nc(n1)NS(=O)(=O)c1cccc(c1)C(=O)N(Cc1cccc(N(C)C3CC4(CCC4)C3)n1)[C@H](CC(C)(C)C)CO2` [Compound 439], for which, under “Table 12, read-out: HBE EC50”, the EC50 is less than 1 µM. In addition, under setting [5], the Emax is greater than 60%.

With `Cc1cccc(C)c1-c1cc2nc(n1)NS(=O)(=O)c1cccc(n1)C(=O)N(Cc1cccc(NCC(C)(C)C)n1)[C@H](CC(C)(C)C)CO2` [Compound 1144], the EC50 (Table 13, read-out: HBE EC50) was less than 1 µM. Besides, the Emax under setting [6] was greater than 60%.

Regarding `Cc1cccc(C)c1-c1cc2nc(n1)NS(=O)(=O)c1cccc(c1)C(=O)N(Cc1ncc(OCCOC(C)C)cn1)[C@H](CC(C)(C)C)CO2` [Compound 559], for the setting “Table 12, read-out: HBE EC50”, the concentration for a half-maximal effect (EC50) is less than 1 µM. Besides, under setting [5], the Emax was greater than 60%.

In the case of `Cc1cccc(C)c1-c1cc2nc(n1)NS(=O)(=O)c1cccc(c1)C(=O)N(Cc1cccc(N3CCC34CCC(C)(C)C4)n1)[C@H](CC(C)(C)C)CO2` (some centres unmarked) [Compound 531], the concentration giving a half-maximal response (EC50) (Table 13, read-out: HBE EC50) is less than 1 µM. The Emax under setting [6] was greater than 60%.

For `Cc1cccc(C)c1-c1cc2nc(n1)NS(=O)(=O)c1cccc(c1)C(=O)N(Cc1cnc(OC(C)C)nc1)[C@H](CC(C)(C)C)CO2` [Compound 270], where the note is “Table 12, read-out: HBE EC50”, the EC50 is less than 1 µM. Further, under setting [5], the Emax was greater than 60%.

On to `Cc1cccc(C)c1-c1cc2nc(n1)NS(=O)(=O)c1cccc(c1)C(=O)N(Cc1cnc(C3CCOCC3)cn1)[C@H](CC(C)C)CO2` [Compound 240], for which the EC50 (Table 12, read-out: HBE EC50) was less than 1 µM. Besides, the Emax under setting [5] was greater than 60%.

For the compound `Cc1cccc(C)c1-c1cc2nc(n1)NS(=O)(=O)c1cccc(c1)C(=O)N(Cc1nccc(NC3CCCCC3)n1)[C@H](CC(C)(C)C)CO2` [Compound 614], the 50% effective concentration (EC50) (Table 11, read-out: HBE EC50) is less than 1 µM. Also, the Emax under setting [4] is greater than 60%.

On to `Cc1cccc(C)c1-c1cc2nc(n1)NS(=O)(=O)c1cccc(c1)C(=O)N(Cc1cncc(N3CCC[C@H]3C3CC3)n1)[C@H](CC1CC1)CO2` [Compound 1502], for which the concentration for a half-maximal effect (EC50) (HBE EC50 (μM), HBE assay) is less than 1 µM. Besides, the activation at 10 µM (read-out: HBE Activity at 10 μM (%)) was greater than 60%. For the same compound, where the note is “read-out: HBE Max activity (%)”, the Emax was greater than 60%.

On to `Cc1cccc(C)c1-c1cc2nc(n1)NS(=O)(=O)c1cccc(c1)C(=O)N(CC1OCCC1(C)C)[C@H](CC(C)(C)C)CO2` (single isomer, unassigned) [Compound 26], for which the activation at 10 µM (Table 11, at 10 μM, read-out: HBE Activity at 10 μM (%)) was greater than 60%.

With `CCO[C@H]1C[C@@H](Oc2cnc(CN3C(=O)c4cccc(c4)S(=O)(=O)Nc4nc(cc(-c5c(C)cccc5C)n4)OC[C@H]3CC(C)C)nc2)C1` [Compound 1461], the concentration for a half-maximal effect (EC50) (HBE assay, read-out: HBE EC50) was less than 1 µM. Further, the Emax under setting [7] is greater than 60%.

Take `Cc1cccc(C)c1-c1cc2nc(n1)NS(=O)(=O)c1cccc(c1)C(=O)N(Cc1cccc(N(CC3CCCO3)C(C)C)n1)[C@H](CC(C)(C)C)CO2` (some centres unmarked) [Compound 1445]: where the note is “HBE assay, read-out: HBE EC50”, the EC50 is 1 to 3 µM. Moreover, under setting [7], the Emax is greater than 60%.

`Cc1cccc(C)c1-c1cc2nc(n1)NS(=O)(=O)c1cccc(c1)C(=O)N(Cc1cc(C(C)(C)C)ccn1)[C@H](CC(C)(C)C)CO2` [Compound 886]: the EC50 (Table 11, read-out: HBE EC50) is less than 1 µM. The Emax under setting [4] was greater than 60%.

Consider `COC[C@]1(C)CCCN1c1cccc(CN2C(=O)c3cccc(c3)S(=O)(=O)Nc3nc(cc(-c4c(C)cccc4C)n3)OC[C@H]2CC(C)(C)C)n1` [Compound 1511], for which the activation at 10 µM under setting [8] is greater than 60%.

`COc1ncc(-c2ccc(CN3C(=O)c4cccc(c4)S(=O)(=O)Nc4nc(cc(-c5c(C)cccc5C)n4)OC[C@H]3CC(C)(C)C)cc2)cn1` [Compound 783]: the EC50 (Table 10, read-out: HBE EC50) is less than 1 µM. In addition, under setting [3], the Emax was greater than 60%.

With `Cc1cccc(C)c1-c1cc2nc(n1)NS(=O)(=O)c1cccc(c1)C(=O)N(Cc1nccc(N(C)C3CC(C)(C)C3)n1)[C@H](CC(C)(C)C)CO2` [Compound 436], the concentration giving a half-maximal response (EC50) (Table 13, read-out: HBE EC50) is less than 1 µM. Also, the Emax under setting [6] is greater than 60%.

As to `Cc1cccc(C)c1-c1cc2nc(n1)NS(=O)(=O)c1cccc(c1)C(=O)N(Cc1ccc(NC(C)C)cn1)[C@H](CC(C)(C)C)CO2` [Compound 996], the EC50 (Table 13, read-out: HBE EC50) is less than 1 µM. In addition, the Emax under setting [6] was greater than 60%.

`COC1CCN(c2cnc(CN3C(=O)c4cccc(c4)S(=O)(=O)Nc4nc(cc(-c5c(C)cccc5C)n4)OC[C@H]3CC(C)(C)C)nc2)CC1` [Compound 718]: the EC50 (Table 11, read-out: HBE EC50) is less than 1 µM. Further, under setting [4], the Emax was greater than 60%.

As for `Cc1cccc(C)c1-c1cc2nc(n1)NS(=O)(=O)c1cccc(c1)C(=O)N(Cc1ncc(N3CC(C)(C)C3)cn1)[C@H](CCC(C)(C)C)CO2` [Compound 1525], the activation at 10 µM under setting [8] was greater than 60%.

As to `Cc1cccc(C)c1-c1cc2nc(n1)NS(=O)(=O)c1cccc(c1)C(=O)N(Cc1cncc(N3CCC[C@H]3C)c1)[C@H](CC(C)(C)C)CO2` [Compound 284], under setting [1], the activation at 10 µM is greater than 600%.

On to `Cc1cccc(C)c1-c1cc2nc(n1)NS(=O)(=O)c1cccc(c1)C(=O)N(Cc1ccn(C3CCCC3)n1)[C@H](CC(C)(C)C)CO2` [Compound 460], for which the concentration for a half-maximal effect (EC50) (Table 12, read-out: HBE EC50) is less than 1 µM. The Emax under setting [5] is greater than 60%.

For the compound `Cc1cccc(C)c1-c1cc2nc(n1)NS(=O)(=O)c1cccc(c1)C(=O)N(Cc1cccc(N3CCC[C@@H]3C)n1)[C@H](CC(C)(C)C)CO2` [Compound 710], under “Table 11, read-out: HBE EC50”, the EC50 is less than 1 µM. Moreover, the Emax under setting [4] is greater than 60%.

`COCCN1CCC(CN2C(=O)c3cccc(c3)S(=O)(=O)Nc3nc(cc(-c4c(C)cccc4C)n3)OC[C@H]2CC(C)(C)C)C1=O` (some centres unmarked) [Compound 640]: the EC50 (Table 11, read-out: HBE EC50) was less than 1 µM.

Regarding `Cc1cccc(C)c1-c1cc2nc(n1)NS(=O)(=O)c1cccc(c1)C(=O)N(Cc1ncc(N3CC(C)(F)C3)cn1)[C@H](CC(C)(C)C)CO2` [Compound 1503], under setting [8], the activation at 10 µM is greater than 60%. Also, for the setting “HBE assay, read-out: HBE EC50”, the EC50 is less than 1 µM. The Emax under setting [7] is greater than 60%.

For `Cc1cccc(C)c1-c1cc2nc(n1)NS(=O)(=O)c1cccc(c1)C(=O)N(Cc1cncc(N3CCCC3C(C)C)n1)[C@H](CC(C)(C)C)CO2` (some centres unmarked) [Compound 1384], the EC50 (HBE assay, read-out: HBE EC50) is less than 1 µM.

For `Cc1cccc(C)c1-c1cc2nc(n1)NS(=O)(=O)c1cccc(c1)C(=O)N(Cc1ccc(N3CCCC3=O)cn1)[C@H](CC(C)(C)C)CO2` [Compound 257], the activation at 10 µM under setting [2] was greater than 600%.

As to `Cc1cccc(C)c1-c1cc2nc(n1)NS(=O)(=O)c1cccc(c1)C(=O)N(Cc1ncc(C3CC4(C3)CC(C)(C)C4)cn1)[C@H](CC(C)(C)C)CO2` [Compound 162], the EC50 (Table 13, read-out: HBE EC50) is less than 1 µM. Moreover, the Emax under setting [6] was greater than 60%.

Take `CC[C@@H](C)[C@@H]1COc2cc(-c3c(C)cccc3C)nc(n2)NS(=O)(=O)c2cccc(c2)C(=O)N1Cc1ncc(OC(C)C)cn1` [Compound 1473]: the concentration for a half-maximal effect (EC50) (HBE assay, read-out: HBE EC50) is less than 1 µM. Besides, the Emax under setting [7] was greater than 60%.

For `Cc1cccc(C)c1-c1cc2nc(n1)NS(=O)(=O)c1cccc(c1)C(=O)N(Cc1ccnc(N3CCC[C@H]3C)n1)[C@H](CC(C)(C)C)CO2` [Compound 1449], the EC50 (HBE assay, read-out: HBE EC50) was less than 1 µM. In addition, the Emax under setting [7] is greater than 60%.

Take `Cc1cccc(C)c1-c1cc2nc(n1)NS(=O)(=O)c1cccc(c1)C(=O)N(Cc1ncc(N3CC(OC(C)C)C3)cn1)[C@H](CC(C)(C)C)CO2` [Compound 1404]: the EC50 (HBE assay, read-out: HBE EC50) was less than 1 µM. Also, the Emax under setting [7] is greater than 60%.
